Drawing on the supplement of paper PMC11923942, this text covers GC retention time and collision cross section for 17 molecules.

Data set [1] can be described thus: GC retention time (DB-5MS, GC-APCI); higher = later elution. The procedure: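 Standards of hydrophobic organic contaminants were analysed by GC-APCI (positive mode, dry or wet source conditions) coupled to cyclic ion mobility-QTOF MS. CCS was measured for the base ion (sometimes a fragment ion) in N2 drift gas (one-pass mode, calibrated with a Waters 22-compound mix). 5 mL/min).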

Data set [2] is described as follows: collision cross section (N2, base ion); higher = larger ion cross section. As to the method: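 Standards of hydrophobic organic contaminants were analysed by GC-APCI (positive mode, dry or wet source conditions) coupled to cyclic ion mobility-QTOF MS. CCS was measured for the base ion (sometimes a fragment ion) in N2 drift gas (one-pass mode, calibrated with a Waters 22-compound mix).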

As for `Clc1ccc(C(c2ccccc2Cl)C(Cl)Cl)cc1` (stereo not drawn) [2,4'-DDD] (APCI source condition: Dry, base ion: [M-CHCl2]+), the GC retention time in data set [1] turned out to be 19.4 min. The collision cross section in data set [2] came to 140.45 Å².

`c1ccc2cc3c(cc2c1)-c1cccc2cccc-3c12` [Benzo(k)fluoranthene] (APCI source condition: Dry, base ion: M+.) yielded a GC retention time in data set [1] of 24.2 min. The molecule further registered a collision cross section in data set [2] of 145.45 Å². The matching figures for `CCCCCCOP(=O)(OCCCCCC)OCCCCCC` [Trihexyl phosphate] (APCI source condition: Wet, base ion: [M+H]+): 19.4 min and 201 Å². The matching figures for `Clc1cccc(-c2cccc(Cl)c2Cl)c1` [PCB 20] (APCI source condition: Dry, base ion: M+.): 16.6 min and 140.68 Å².

Molecule `ClC1=C(Cl)C2(Cl)[C@H]3[C@@H]4O[C@@H]4[C@H](Cl)[C@H]3C1(Cl)C2(Cl)Cl` (stereo partly drawn) [Heptachlor-exo-epoxide] (APCI source condition: Dry, base ion: [M-H]+) registered a GC retention time in data set [1] of 18.2 min. Moreover, in data set [2], the collision cross section is on record as 151.86 Å². The matching figures for `ClC1=C(Cl)C2(Cl)C3C4CC(C5OC45)C3C1(Cl)C2(Cl)Cl` (stereo not drawn) [Endrin] (APCI source condition: Wet, base ion: [M+H]+): 19.4 min and 157.95 Å². The like results for `Brc1ccc(Oc2cc(Br)c(Br)cc2Br)c(Br)c1` [PBDE 99] (APCI source condition: Dry, base ion: M+.) were, in that order, 24.2 min and 169.31 Å². The like results for `Clc1cccc(-c2cccc(Cl)c2Cl)c1Cl` [PCB 40] (APCI source condition: Dry, base ion: M+.) were, in that order, 17.9 min and 144.96 Å². For `c1ccc2c(c1)c1cccc3ccc4cccc2c4c31` [Benzo(e)pyrene] (APCI source condition: Dry, base ion: M+.), in data set [1], the GC retention time turned out to be 24.7 min. In data set [2], this molecule yielded a collision cross section of 142.88 Å². `Clc1c(Cl)c(Cl)c(-c2c(Cl)c(Cl)c(Cl)c(Cl)c2Cl)c(Cl)c1Cl` [PCB 209] (APCI source condition: Dry, base ion: M+.) came in with a collision cross section in data set [2] of 179.93 Å². `Clc1ccc(-c2c(Cl)ccc(Cl)c2Cl)cc1Cl` [PCB 110] (APCI source condition: Dry, base ion: M+.): the GC retention time in data set [1] turned out to be 19.4 min. The same molecule returned a collision cross section in data set [2] of 152.9 Å².

The molecule `Clc1ccc(-c2ccccc2Cl)cc1` [PCB 7] (APCI source condition: Dry, base ion: M+.) yielded a GC retention time in data set [1] of 14.6 min. The molecule further had a collision cross section in data set [2] of 137.98 Å². The matching figures for `Cc1c(Br)c(Br)c(Br)c(Br)c1Br` [Pentabromotoluene] (APCI source condition: Dry, base ion: M+.): 20.1 min and 140.29 Å². The matching figures for `Brc1ccc(Oc2ccc(Br)cc2Br)cc1` [PBDE 28] (APCI source condition: Dry, base ion: M+.): 20.1 min and 154.31 Å². In the case of `O=P(OCCCl)(OCCCl)OCCCl` [Tris(2-chloroethyl) phosphate] (APCI source condition: Wet, base ion: [M+H]+), the GC retention time in data set [1] came out at 15.1 min. In data set [2], this molecule gave a collision cross section of 145.65 Å². The like results for `C=C(Br)COc1c(Br)cc(Br)cc1Br` [2-Bromoallyl 2,4,6-tribromophenyl ether] (APCI source condition: Dry, base ion: [M-Br]+) were, in that order, 18.2 min and 143.35 Å². The matching figures for `Clc1ccc(Cl)c(-c2ccccc2Cl)c1` [PCB 18] (APCI source condition: Dry, base ion: M+.): 15.4 min and 140.01 Å².
